Values quoted from earlier work, collected in patent US20250108152A1, “DRUG ELUTING POLYMER COMPOSED OF BIODEGRADABLE POLYMERS APPLIED TO SURFACE OF MEDICAL DEVICE” (The General Hospital Corporation, priority 2016, published 2025).

Row | fraction of intravenous dose that penetrates bone | SMILES
1 | 7-15% | Cc1nnc(SCC2=C(C(=O)O)N3C(=O)[C@@H](NC(=O)Cn4cnnn4)[C@H]3SC2)s1 [cefazolin]
2 | 5-19% | CO/N=C(\C(=O)N[C@@H]1C(=O)N2C(C(=O)O)=C(CSc3nc(=O)c(=O)[nH]n3C)CS[C@H]12)c1csc(N)n1 [ceftriaxone]

Row | SMILES | fraction of intravenous dose that penetrates bone
3 | CN[C@H](CC(C)C)C(=O)N[C@H]1C(=O)N[C@@H](CC(N)=O)C(=O)N[C@H]2C(=O)N[C@H]3C(=O)N[C@H](C(=O)N[C@H](C(=O)O)c4cc(O)cc(O)c4-c4cc3ccc4O)[C@H](O)c3ccc(c(Cl)c3)Oc3cc2cc(c3O[C@@H]2O[C@H](CO)[C@@H](O)[C@H](O)[C@H]2O[C@H]2C[C@](C)(N)[C@H](O)[C@H](C)O2)Oc2ccc(cc2Cl)[C@H]1O [vancomycin] | 5-20%
